The results in this text go back to ChEMBL document CHEMBL1795224, “Synthesis, in vitro antioxidant, anthelmintic and molecular docking studies of novel dichloro substituted benzoxazole-triazolo-thione derivatives” (2011).

What all share (type): functional
The subject of assay [1] is Metaphire posthuma. Put plainly: Anthelmintic activity against Pheretima posthuma assessed as death time at 2 %.
Assay [2] has as its system Metaphire posthuma. Put plainly: Anthelmintic activity against Pheretima posthuma assessed as time taken for complete paralysis.
Assay [3] has as its system Metaphire posthuma. Put plainly: Anthelmintic activity against Pheretima posthuma assessed as time taken for complete paralysis at 1 %.
Assay [4] has as its system Metaphire posthuma. Put plainly: Anthelmintic activity against Pheretima posthuma assessed as death time.
The test system of assay [5] is Radical scavenging activity. Put plainly: Antioxidant activity assessed as DPPH free radical scavenging activity at 20 ug/4ml after 30 mins. Background: Loss of DPPH colour is used to gauge radical scavenging.
Assay [6] has as its system Metaphire posthuma. Put plainly: Anthelmintic activity against Pheretima posthuma assessed as time taken for complete paralysis at 3 %.
Assay [7] is described as follows: Antioxidant activity assessed as potassium ferric cyanide ion reducing power at 50 to 100 ug after 20 mins.
The test system of assay [8] is Metaphire posthuma. Put plainly: Anthelmintic activity against Pheretima posthuma assessed as time taken for complete paralysis at 2 %.
Assay [9] relates to Metaphire posthuma. Put plainly: Anthelmintic activity against Pheretima posthuma assessed as death time at 1 %.
The subject of assay [10] is Metaphire posthuma. Put plainly: Anthelmintic activity against Pheretima posthuma assessed as death time at 3 %.
The nature of assay [11]: Antioxidant activity assessed as ascorbic acid equivalent antioxidant capacity at 50 to 100 ug after 90 mins by phosphomolybdenum method.

The source made the active and inactive calls. The rule behind the calls is not given here.

Turning to `S=c1[nH]nc2oc3c(Cl)cc(Cl)cc3n12`, the Time in the assay on Metaphire posthuma [1] worked out at 5.49 min; with Metaphire posthuma [3], 4.29 min; with Metaphire posthuma [4], 5.48 min; in the assay on Metaphire posthuma [8] it was 3.82 min; in the assay on Metaphire posthuma [9], 6.48 min; in the assay on Metaphire posthuma [10], 4.12 min. Besides, the Activity result with Metaphire posthuma [2] was “Dose-dependent effect”; in assay [5], 74.8%; in the assay on Metaphire posthuma [6] it was “Dose-dependent effect”. Besides, the result in assay [7] and in assay [11] was Active.
Regarding `CCOC(=O)CSc1nc2cc(Cl)cc(Cl)c2o1`, the Time was found to be 6.37 min with Metaphire posthuma [1]; 5.87 min with Metaphire posthuma [3]; 6.61 min in the assay with Metaphire posthuma [4]; 5.28 min in the assay with Metaphire posthuma [8]; 7.23 min in the assay with Metaphire posthuma [9]; 5.75 min in the assay with Metaphire posthuma [10]. Further, the Activity entry in the assay with Metaphire posthuma [2] is “Dose-dependent effect”; in [5], 9.49%; in the assay with Metaphire posthuma [6], “Dose-dependent effect”. Besides, the outcome in assay [7] was inactive.
For `Sc1nc2cc(Cl)cc(Cl)c2o1`, the Time with Metaphire posthuma [1] is on record as 7.83 min; in the assay with Metaphire posthuma [3], 7.27 min; with Metaphire posthuma [4], 8.22 min; with Metaphire posthuma [8], 3.2 min; in the assay with Metaphire posthuma [9], 9.05 min; in the assay on Metaphire posthuma [10] it was 5.95 min. Also, the values for the Activity entry (in the assay on Metaphire posthuma [2]; in assay [5]; in the assay with Metaphire posthuma [6]) were “Dose-dependent effect”, 32.1% and “Dose-dependent effect”, respectively. Further, in assay [7], the outcome was inactive.
For the compound `CCCSc1ccc2[nH]c(NC(=O)OC)nc2c1` [ALBENDAZOLE], the Time came out at 5.37 min in the assay with Metaphire posthuma [4] and 7.2 min in the assay on Metaphire posthuma [9].
Regarding `CCOC(=O)CSc1nnc2oc3c(Cl)cc(Cl)cc3n12`, the Time was 5.95 min with Metaphire posthuma [1]; 4.74 min with Metaphire posthuma [3]; 5.92 min in the assay on Metaphire posthuma [4]; 4 min in the assay with Metaphire posthuma [8]; 6.13 min with Metaphire posthuma [9]; 4.85 min in the assay on Metaphire posthuma [10]. Also, the Activity result was “Dose-dependent effect” with Metaphire posthuma [2], 65.7% in assay [5] and “Dose-dependent effect” with Metaphire posthuma [6]. Besides, the outcome in [7] and in [11] was Active.
Consider `Cc1cc(C(C)(C)C)c(O)c(C(C)(C)C)c1`, for which the Activity in [5] came to 16.2%.
In the case of `O=[N+]([O-])c1ccc(NCn2nc3oc4c(Cl)cc(Cl)cc4n3c2=S)cc1`, the Time with Metaphire posthuma [1] is given as 7.07 min; in the assay on Metaphire posthuma [3] it was 6.58 min; in the assay on Metaphire posthuma [4] it was 7.95 min; with Metaphire posthuma [8] it was 5.97 min; with Metaphire posthuma [9], 8.33 min; in the assay with Metaphire posthuma [10], 6.64 min. The Activity result is “Dose-dependent effect” in the assay on Metaphire posthuma [2], 18% in assay [5] and “Dose-dependent effect” in the assay with Metaphire posthuma [6]. For the same compound, the result in [7] and in [11] was Active.
Take `NNc1nc2cc(Cl)cc(Cl)c2o1`: the Time in the assay on Metaphire posthuma [1] stood at 4.22 min; in the assay on Metaphire posthuma [3] it was 3.57 min; in the assay with Metaphire posthuma [4], 4.42 min; with Metaphire posthuma [8] it was 3.08 min; with Metaphire posthuma [9] it was 4.77 min; in the assay on Metaphire posthuma [10] it was 3.23 min. Besides, the figures for the Activity result (in the assay with Metaphire posthuma [2]; in assay [5]; in the assay on Metaphire posthuma [6]) were “Dose-dependent effect”, 81.5% and “Dose-dependent effect”, respectively. Besides, the outcome in assay [7] and in [11] was Active.
